The source of these data is patent US20260090997A1, “Lipid Nanoparticles Comprising Nucleic Acids Encoding Therapeutic Genes and Uses in Medical Methods” (priority 2022, published 2026).

The subject of the assay is FADU xenografts. The assay can be described thus: Intratumoral NanoLuc mRNA delivery into FADU xenografts, bioluminescence. The class given is in vivo, Nu/J mice. The note with it: LNPs containing MC3, cKK-E12, SM-102 or C12-200. An excerpt:
FIG. 5A illustrates different LNPs formulated to carry NanoLuc reporter mRNA to evaluate effective intratumoral injections into FADU xenografts. To identify the most suitable ionizable lipid for intratumoral delivery, an in vivo imaging system was used to quantify the bioluminescence resulting from the functional delivery of NanoLuc mRNA using LNPs containing four different ionizable lipids: MC3, cKK-E12, SM-102, and C12-200.

The structures appear in SMILES notation.

With `CCCCCCCCCCC(O)CN(CCN1CCN(CCN(CC(O)CCCCCCCCCC)CC(O)CCCCCCCCCC)CC1)CCN(CC(O)CCCCCCCCCC)CC(O)CCCCCCCCCC` (stereo not shown) [C12-200], the “bioluminescence from functional delivery of NanoLuc mRNA, comparison of ionizable lipids” value is recorded as “optimal ionizable lipid”.
